Measured values taken from patent US11767341B2, “Lincosamide antibiotics and uses thereof” (President and Fellows of Harvard College, priority 2017, dated 2023).
Converted amounts (≈) assume the structure as drawn. Like-named read-outs stand apart in the source and are kept apart here.

Key:
Assay in all cases: MIC determination
Type in all cases: cell-based
[1] = system: E. coli MP-74 LptD mutant; settings: Escherichia coli
[2] = system: S. pneumoniae MMX 3028 cErmB; settings: Streptococcus pneumoniae, MMX3028CERMB
E. coli MMX 0121 ΔTolC = settings: Escherichia coli
[3] = system: E. coli MMX TolC parent strain; settings: Escherichia coli
S. aureus MMX 3035 cErmA = settings: Staphylococcus aureus, MMX3035CERMA
[4] = system: P. aeruginosa MMX 3476 Δmex; settings: Pseudomonas aeruginosa
[5] = system: S. pneumoniae MMX 3031 cMefA; settings: Streptococcus pneumoniae, MMX3031CMEFA
B. fragilis ATCC 25285 = settings: Bacteroides fragilis, ATCC25285
S. pyogenes ATCC 19615 = settings: Streptococcus pyogenes, ATCC19615
E. faecalis ATCC 29212 = settings: Enterococcus faecalis
E. coli ATCC 25922 = settings: Escherichia coli
S. pneumoniae ATCC 49619 = settings: Streptococcus pneumoniae, ATCC49619; S. pneumoniae ATCC 49619; read-out: MIC
H. influenzae ATCC 49247 = settings: Haemophilus influenzae, ATCC49247
[6] = system: S. aureus MP-549 msr(a) USA 300; settings: Staphylococcus aureus, USA300, S. aureus MP-549 msr(a) USA 300
S. aureus BAA 977 iErmA = settings: Staphylococcus aureus, BAA977
[7] = system: P. aeruginosa MMX Mex parent strain; settings: Pseudomonas aeruginosa
S. aureus ATCC 29213 = settings: Staphylococcus aureus
E. coli MP-9 ΔTolC = settings: Escherichia coli
C. difficile BAA 1805 = settings: Clostridioides difficile, BAA1805; C. difficile BAA 1805; read-out: MIC
[8] = system: E. faecalis MMX 847 Macrolide-Resistant; settings: Enterococcus faecalis
[9] = system: S. aureus MP-513 clinical cErm; settings: Staphylococcus aureus
[10] = system: S. pyogenes MMX 946 Macrolide-Resistant; settings: Streptococcus pyogenes, read-out: MIC
P. aeruginosa ATCC 27853 = settings: Pseudomonas aeruginosa, ATCC27853
[11] = system: S. aureus Micromyx USA 300; settings: Staphylococcus aureus, USA300; S. aureus Micromyx USA 300; read-out: MIC
K. pneumoniae ATCC 10031 = settings: Klebsiella pneumoniae, ATCC10031
[12] = system: S. pneumoniae UNT-038, MP-626, TP 160 (mefA); settings: Streptococcus pneumoniae
[13] = system: S. pneumoniae UNT-039, MP-627, TP1517 (mefA); settings: Streptococcus pneumoniae
[14] = system: S. pyogenes UNT-014, MP-625 MacRes; settings: Streptococcus pyogenes
[15] = system: S. aureus UNT-146, MP-620, TP 506 (ermA); settings: Staphylococcus aureus
[16] = system: S. aureus UNT96, NRS710, MP-618 (USA 100, Erythro >8); settings: Staphylococcus aureus
E. faecalis UNT-047 VRE = settings: Enterococcus faecalis, VRE
[17] = system: S. aureus UNT-120, MP-619, NRS22 (USA 600, GISA); settings: Staphylococcus aureus
[18] = S. pyogenes ATCC 19615, read-out: MIC
[19] = ATCC29213, S. aureus ATCC 29213, read-out: MIC

CSC1O[C@H]([C@H](NC(=O)[C@H]2NC[C@@H]3CC=CCO[C@H]32)[C@H](C)Sc2ccc(-c3cncnc3)cc2)C(O)[C@@H](O)[C@H]1O (stereo partly shown) [FSA-27049]
MIC [1]: 32 µg/mL (≈ 54.4 µM) | MIC [2]: 32 µg/mL (≈ 54.4 µM) | MIC (E. coli MMX 0121 ΔTolC): 8 µg/mL (≈ 13.6 µM) | MIC [3]: > 64 µg/mL | MIC (S. aureus MMX 3035 cErmA): > 64 µg/mL | MIC [4]: > 64 µg/mL | MIC [5]: ≤ 0.06 µg/mL | MIC (B. fragilis ATCC 25285): > 64 µg/mL | MIC (S. pyogenes ATCC 19615; [18]): ≤ 0.06 µg/mL | MIC (E. faecalis ATCC 29212; ATCC29212): 64 µg/mL (≈ 109 µM) | MIC (E. coli ATCC 25922; ATCC25922): > 64 µg/mL | MIC (S. pneumoniae ATCC 49619): ≤ 0.06 µg/mL | MIC (H. influenzae ATCC 49247): 32 µg/mL (≈ 54.4 µM) | MIC [6]: 0.25 µg/mL (≈ 0.425 µM) | MIC (S. aureus BAA 977 iErmA): 2 µg/mL (≈ 3.4 µM) | MIC [7]: > 64 µg/mL | MIC (S. aureus ATCC 29213; [19]): 1 µg/mL (≈ 1.7 µM) | MIC (E. coli MP-9 ΔTolC): 64 µg/mL (≈ 109 µM) | MIC (C. difficile BAA 1805): 1 µg/mL (≈ 1.7 µM) | MIC [8]: > 64 µg/mL | MIC [9]: > 64 µg/mL | MIC ([10]; S. pyogenes MMX 946 Macrolide-Resistant (MacRes)): 2 µg/mL (≈ 3.4 µM) | MIC (P. aeruginosa ATCC 27853): > 64 µg/mL | MIC [11]: 1 µg/mL (≈ 1.7 µM)

CSC1O[C@H]([C@H](NC(=O)[C@H]2NC[C@@H]3C[C@@H](O)[C@@H](O)CO[C@H]32)[C@H](C)Cl)C(O)[C@@H](O)[C@H]1O (stereo partly shown) [FSA-501076]
MIC (K. pneumoniae ATCC 10031): > 64 µg/mL | MIC [12]: 64 µg/mL (≈ 136 µM) | MIC (S. pyogenes ATCC 19615): > 64 µg/mL | MIC [13]: 32 µg/mL (≈ 67.9 µM) | MIC (E. faecalis ATCC 29212; ATCC29212): > 64 µg/mL | MIC [14]: > 64 µg/mL | MIC (E. coli ATCC 25922; ATCC25922): > 64 µg/mL | MIC [15]: > 64 µg/mL | MIC (S. pneumoniae ATCC 49619): 64 µg/mL (≈ 136 µM) | MIC [6]: > 64 µg/mL | MIC (S. aureus BAA 977 iErmA): > 64 µg/mL | MIC (S. aureus ATCC 29213; ATCC29213): > 64 µg/mL | MIC [16]: > 64 µg/mL | MIC (E. coli MP-9 ΔTolC): > 64 µg/mL | MIC [9]: > 64 µg/mL | MIC (E. faecalis UNT-047 VRE): > 64 µg/mL | MIC (P. aeruginosa ATCC 27853): > 64 µg/mL | MIC [17]: > 64 µg/mL

CSC1O[C@H]([C@H](NC(=O)[C@H]2NC[C@@H]3C[C@H]4OC(C)(C)O[C@H]4CO[C@H]32)[C@H](C)Cl)C(O)[C@@H](O)[C@H]1O (stereo partly shown) [FSA-501099]
MIC (K. pneumoniae ATCC 10031): > 64 µg/mL | MIC [12]: 16 µg/mL (≈ 31.3 µM) | MIC (S. pyogenes ATCC 19615; [18]): 16 µg/mL (≈ 31.3 µM) | MIC [13]: 2 µg/mL (≈ 3.91 µM) | MIC (E. faecalis ATCC 29212; ATCC29212): > 64 µg/mL | MIC ([14]; S. pyogenes UNT-014, MP-625 MacRes, read-out: MIC): 29 µg/mL (≈ 56.7 µM) | MIC (E. coli ATCC 25922; ATCC25922): > 64 µg/mL | MIC [15]: > 64 µg/mL | MIC (S. pneumoniae ATCC 49619): 8 µg/mL (≈ 15.7 µM) | MIC [6]: > 64 µg/mL | MIC (S. aureus BAA 977 iErmA): > 64 µg/mL | MIC (S. aureus ATCC 29213; ATCC29213): > 64 µg/mL | MIC [16]: > 64 µg/mL | MIC (E. coli MP-9 ΔTolC): > 64 µg/mL | MIC [9]: > 64 µg/mL | MIC (E. faecalis UNT-047 VRE): > 64 µg/mL | MIC (P. aeruginosa ATCC 27853): > 64 µg/mL | MIC [17]: > 64 µg/mL

CCCN1CCO[C@@H]2[C@H](CN[C@@H]2C(=O)N[C@H]([C@H](C)Cl)[C@H]2OC(SC)[C@H](O)C(O)C2O)C1 (stereo partly shown) [FSA-503003]
MIC (K. pneumoniae ATCC 10031): > 64 µg/mL | MIC (E. coli ATCC 25922; ATCC25922): > 64 µg/mL | MIC [6]: 2 µg/mL (≈ 4.15 µM) | MIC (S. aureus BAA 977 iErmA): 4 µg/mL (≈ 8.3 µM) | MIC (S. aureus ATCC 29213; [19]): 4 µg/mL (≈ 8.3 µM) | MIC (E. coli MP-9 ΔTolC): > 64 µg/mL | MIC [9]: > 64 µg/mL | MIC (P. aeruginosa ATCC 27853): > 64 µg/mL

CCNC(=O)N1CCO[C@@H]2[C@H](CN[C@@H]2C(=O)N[C@H]([C@H](C)Cl)[C@H]2OC(SC)[C@H](O)C(O)C2O)C1 (stereo partly shown) [FSA-503004]
MIC (K. pneumoniae ATCC 10031): > 64 µg/mL | MIC (E. coli ATCC 25922; ATCC25922): > 64 µg/mL | MIC [6]: > 64 µg/mL | MIC (S. aureus BAA 977 iErmA): > 64 µg/mL | MIC (S. aureus ATCC 29213; ATCC29213): > 64 µg/mL | MIC (E. coli MP-9 ΔTolC): > 64 µg/mL | MIC [9]: > 64 µg/mL | MIC (P. aeruginosa ATCC 27853): > 64 µg/mL

C=CCOC(=O)N1CCO[C@@H]2[C@H](CN[C@@H]2C(=O)N[C@H]([C@H](C)Cl)[C@H]2OC(SC)[C@H](O)[C@H](O)C2O)C1 (stereo partly shown) [FSA-503073]
MIC (K. pneumoniae ATCC 10031): > 64 µg/mL | MIC (E. coli ATCC 25922; ATCC25922): > 64 µg/mL | MIC [6]: 32 µg/mL (≈ 61.1 µM) | MIC (S. aureus BAA 977 iErmA): 64 µg/mL (≈ 122 µM) | MIC (S. aureus ATCC 29213; [19]): 64 µg/mL (≈ 122 µM) | MIC (E. coli MP-9 ΔTolC): > 64 µg/mL | MIC [9]: > 64 µg/mL | MIC (P. aeruginosa ATCC 27853): > 64 µg/mL

CSC1O[C@H]([C@H](NC(=O)[C@H]2NC[C@@H]3CN(Cc4ccc(N)nc4)CCO[C@H]32)[C@H](C)Cl)C(O)[C@@H](O)[C@H]1O (stereo partly shown) [FSA-504050]
MIC (K. pneumoniae ATCC 10031): > 64 µg/mL | MIC (E. coli ATCC 25922; ATCC25922): > 64 µg/mL | MIC [6]: 32 µg/mL (≈ 58.6 µM) | MIC (S. aureus BAA 977 iErmA): 64 µg/mL (≈ 117 µM) | MIC (S. aureus ATCC 29213; [19]): 32 µg/mL (≈ 58.6 µM) | MIC (E. coli MP-9 ΔTolC): > 64 µg/mL | MIC [9]: > 64 µg/mL | MIC (P. aeruginosa ATCC 27853): > 64 µg/mL

CSC1O[C@H]([C@H](NC(=O)[C@H]2NC[C@@H]3CN(Cc4ccnc(N)c4)CCO[C@H]32)[C@H](C)Cl)C(O)C(O)[C@H]1O (stereo partly shown) [FSA-504849]
MIC (K. pneumoniae ATCC 10031): > 64 µg/mL | MIC (E. coli ATCC 25922; ATCC25922): > 64 µg/mL | MIC [6]: 8 µg/mL (≈ 14.6 µM) | MIC (S. aureus BAA 977 iErmA): 32 µg/mL (≈ 58.6 µM) | MIC (S. aureus ATCC 29213; [19]): 16 µg/mL (≈ 29.3 µM) | MIC (E. coli MP-9 ΔTolC): > 64 µg/mL | MIC [9]: > 64 µg/mL | MIC (P. aeruginosa ATCC 27853): > 64 µg/mL

CSC1O[C@H]([C@H](NC(=O)[C@H]2NC[C@@H]3C[C@@H](c4ccccc4F)CCO[C@H]32)[C@H](C)Cl)C(O)[C@@H](O)[C@H]1O (stereo partly shown) [FSA-511100]
MIC [1]: 16 µg/mL (≈ 30 µM) | MIC ([2]; S. pneumoniae MMX 3028 cErmB, read-out: MIC): > 256 µg/mL | MIC (K. pneumoniae ATCC 10031; K. pneumoniae ATCC 10031, read-out: MIC): > 64 µg/mL | MIC (S. pyogenes ATCC 19615; [18]): 0.25 µg/mL (≈ 0.469 µM) | MIC [13]: 1 µg/mL (≈ 1.88 µM) | MIC (E. faecalis ATCC 29212; ATCC29212, read-out: MIC): > 256 µg/mL | MIC (E. coli ATCC 25922; ATCC25922, E. coli ATCC 25922, read-out: MIC): > 64 µg/mL | MIC (S. pneumoniae ATCC 49619): 0.125 µg/mL (≈ 0.234 µM) | MIC (H. influenzae ATCC 49247; H. influenzae ATCC 49247, read-out: MIC): 64 µg/mL (≈ 120 µM) | MIC [6]: 0.25 µg/mL (≈ 0.469 µM) | MIC (S. aureus BAA 977 iErmA): 4 µg/mL (≈ 7.5 µM) | MIC (S. aureus ATCC 29213; [19]): 0.25 µg/mL (≈ 0.469 µM) | MIC (E. coli MP-9 ΔTolC): 32 µg/mL (≈ 60 µM) | MIC ([9]; S. aureus MP-513 clinical cErm, read-out: MIC): > 256 µg/mL | MIC ([10]; S. pyogenes MMX 946 MacRes): > 256 µg/mL
